US11413329B2, “Cancer cell trap” (BOARD OF REGENTS, THE UNIVERSITY OF TEXAS SYSTEM, priority 2012, dated 2022)
“Also recorded” adds a separate entry of the source. Blank lines part the entries; values can stand above or below the compound they belong to.

Assays:
[1] = tested on: CD11b+ inflammatory cells; test: Murine cancer metastasis model: inflammatory cell recruitment to subcutaneous microsphere implants; type: in vivo, C57BL/6 mice; conditions: vs control
Procedure: The animal experiments were carried out using C57BL/6 mice (6-10 week old) from Jackson Laboratory (Bar Harbor, Me., USA). This murine cancer metastasis model comprised of two consecutive steps. First, biomaterial microspheres (75 mg/0.5 ml saline/mouse) were implanted in the dorsal subcutaneous space of mice to elicit localized subcutaneous inflammation. Second, after microsphere implantation for different periods of time (6 hours-14 days), cancer cells (5×10^6 cells/0.2 ml/mouse) were transplanted in the peritoneal cavity. 24 h after tumor cell trans-plantation the animals were sacrificed. The vital organs, lymph nodes, the microsphere implants and surrounding tissues were then recovered and frozen in OCT embedding media (Polysciences Inc., Warrington, Pa., USA) at -80° C. The peripheral blood was also collected for further analysis. Eight μm thick sections were sliced using a Leica Cryostat (CM1850) and placed on poly-L-lysine coated slides for histological and immunohistochemical analyses. […] FITC-conjugated antibody incubated tissue section was ready for image analysis. […] All tissue section images were taken using a Leica fluorescence microscope (Leica Microsystems GmbH, Wetzlar, Germany) equipped with a Retiga-EXi CCD camera (QImaging, Surrey, BC, Canada) as described earlier. […]

[2] = tested on: B16F10 melanoma cells; test: Murine cancer metastasis model: melanoma cell migration to subcutaneous microsphere implants and lymph nodes; type: in vivo, C57BL/6 mice; conditions: B16F10 cells intraperitoneal
Procedure: The animal experiments were carried out using C57BL/6 mice (6-10 week old) from Jackson Laboratory (Bar Harbor, Me., USA). This murine cancer metastasis model comprised of two consecutive steps. First, biomaterial microspheres (75 mg/0.5 ml saline/mouse) were implanted in the dorsal subcutaneous space of mice to elicit localized subcutaneous inflammation. Second, after microsphere implantation for different periods of time (6 hours-14 days), cancer cells (5×10^6 cells/0.2 ml/mouse) were transplanted in the peritoneal cavity. 24 h after tumor cell trans-plantation the animals were sacrificed. The vital organs, lymph nodes, the microsphere implants and surrounding tissues were then recovered and frozen in OCT embedding media (Polysciences Inc., Warrington, Pa., USA) at −80° C. The peripheral blood was also collected for further analysis. […]
Immunohistological analyses for CD11b+ inflammatory cells and HMB45+ melanoma cells were carried out to assess the degree of implant-mediated inflammatory responses and melanoma cell migration, respectively. […] FITC-conjugated antibody incubated tissue section was ready for image analysis. […] All tissue section images were taken using a Leica fluorescence microscope (Leica Microsystems GmbH, Wetzlar, Germany) equipped with a Retiga-EXi CCD camera (QImaging, Surrey, BC, Canada) as described earlier. […]

[3] = In vivo release rate of chemotherapy drugs from hydrogel nanoparticle traps; conditions: from EPO-loaded hydrogel nanoparticles
Procedure: (§1) The fabrication of temperature sensitive hydrogel nanoparticles is described in the recent publication (Cai T, Hu P, Sun M, Zhou J, Tsai Y-T, Baker D W, Tang L. Novel thermogelling dispersions of polymer nanoparticles for controlled protein release. Nanomedicine 8 (8): 1301-8, 2012). The nanoparticles were loaded with EPO (600 international units/1 ml) in the presence or absence of doxorubicine (300 μg/m1) and paclitaxel (30 mg/ml). For that, EPO (600 international units), doxorubicine (300 μg) or paclitaxel (30 mg) was mixed with 50 μg of hydrogel nanoparticles at room temperature. After implantation, the average in vivo release rates for doxorubicin and paclitaxel were measured at 10 μg/day and 1 mg/day, respectively.

[4] = tested on: PC3 cells; test: Cancer cell killing at implant sites of EPO+doxorubicin-loaded particles; type: in vivo; conditions: EPO+doxorubicin-loaded vs EPO-loaded particles, 1, 2, 4, and 7 days
Procedure: as §1
(§2) Further studies were carried out to determine whether the implantation of chemotherapy drug-loaded cancer cell traps can kill cancer cells at the implant sites. […] To quantify cell recruitment, tissue section images were taken using a Leica fluorescence microscope (Leica Microsystems Wetzlar GmbH, Wetzlar, Germany) equipped with a QImaging Retiga-EXi CCD camera (QImaging, Surrey, BC, Canada). The tissue section images at a magnification of 400× (viewing area 0.24 mm^2) were then used to quantify the cell numbers per view field by cell counter plugin of ImageJ processing program.

[5] = tested on: melanoma cells; test: Cancer cell killing at implant sites of EPO+paclitaxel-loaded particles; type: in vivo, C57 mice; conditions: EPO+paclitaxel-loaded vs EPO-loaded particles, 1, 2, 4, and 7 days
Procedure: as §1, §2

SMILES: c1cc(CN2CCCNCCNCCCNCC2)ccc1CN1CCCNCCNCCCNCC1 [AMD3100]
inflammatory cell (CD11b+) recruitment to the subcutaneous microsphere implantation site [1]: drastically reduced
accumulation of melanoma cells in lymph nodes ([2]; PLA microsphere-bearing mice, vs saline): no effect
recruitment of melanoma cells (HMB45+) to the subcutaneous microsphere implantation site ([2]; subcutaneous microsphere implants, 24 h after transplantation, vs control): drastically reduced; also recorded: inhibited

average in vivo release rate ([3]; 300 μg/ml): 10 µg/day
SMILES: COc1cccc2c1C(=O)c1c(O)c3c(c(O)c1C2=O)C[C@@](O)(C(=O)CO)C[C@@H]3O[C@H]1C[C@H](N)[C@H](O)[C@H](C)O1 [doxorubicin]
numbers of recruited PC3 cells at implant [4]: substantially reduced

average in vivo release rate ([3]; 30 mg/ml): 1000 µg/day
SMILES: CC(=O)O[C@H]1C(=O)[C@@]2(C)[C@H]([C@H](OC(=O)c3ccccc3)[C@]3(O)C[C@H](OC(=O)[C@H](O)[C@@H](NC(=O)c4ccccc4)c4ccccc4)C(C)=C1C3(C)C)[C@]1(OC(C)=O)CO[C@@H]1C[C@@H]2O [paclitaxel]
numbers of recruited melanoma cells at implant [5]: substantially reduced
